From patent publication US20180370927A1, “MICROBIOCIDAL OXADIAZOLE DERIVATIVES” (SYNGENTA PARTICIPATIONS AG, priority 2015, published 2018)

Assays:
[1] = system: Puccinia recondita f. Sp. Tritici; experiment: Puccinia recondita f. sp. tritici / wheat / leaf disc curative (brown rust); type: in vivo; details: foliar, 200 ppm in the applied formulation, wheat leaf segments, curative (applied 1 day after inoculation), assessed 6 to 8 days after application, read-out: disease control compared to untreated control leaf disks
Method in brief: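 Wheat cv. Kanzler leaf segments on agar were inoculated with spores, kept dark at 19° C, 75% RH, then sprayed with diluted formulated compound 1 day after inoculation (curative). Incubation continued at 19° C, 75% RH, 12 h light/12 h dark, with percent disease control versus untreated scored 6 to 8 days after application.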

Phakopsora pachyrhizi = Phakopsora pachyrhizi / soybean / leaf disc preventative (Asian soybean rust); type: in vivo; details: foliar, 200 ppm in the applied formulation, soybean leaf disks, assessed 12 to 14 days after application, read-out: disease control compared to untreated control leaf disks
Protocol: Leaf disks or leaf segments of various plant species are cut from plants grown in a greenhouse. The cut leaf disks or segments are placed in multiwell plates (24-well format) onto water agar. The leaf disks are sprayed with a test solution before (preventative) or after (curative) inoculation. Compounds to be tested are prepared as DMSO solutions (max. 10 mg/mL) which are diluted to the appropriate concentration with 0.025% Tween20 just before spraying. The inoculated leaf disks or segments are incubated under defined conditions (temperature, relative humidity, light, etc.) according to the respective test system. A single evaluation of disease level is carried out 3 to 14 days after inoculation, depending on the pathosystem. Percent disease control relative to the untreated check leaf disks or segments is then calculated.
Example 3: Fungicidal Activity Against Phakopsora pachyrhizi/Soybean/Leaf Disc Preventative (Asian Soybean Rust)
Soybean leaf disks are placed on water agar in multiwell plates (24-well format) and sprayed with the formulated test compound diluted in water. One day after application leaf discs are inoculated by spraying a spore suspension on the lower leaf surface. After an incubation period in a climate cabinet of 24-36 hours in darkness at 20° C. and 75% relative humidity leaf disc are kept at 20° C. with 12 hours light/day and 75% relative humidity. The activity of a compound is assessed as percent disease control compared to untreated when an appropriate level of disease damage appears in untreated check leaf disks (12 to 14 days after application).
The following compounds at 200 ppm in the applied formulation give at least 80% disease control in this test when compared to untreated control leaf disks under the same conditions, which show extensive disease development.

[2] = system: Puccinia recondita f. Sp. Tritici; experiment: Puccinia recondita f. sp. tritici / wheat / leaf disc preventative (brown rust); type: in vivo; details: foliar, 200 ppm in the applied formulation, wheat leaf segments, preventative, assessed 7 to 9 days after application, read-out: disease control compared to untreated control leaf disks
Method in brief: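 Wheat cv. Kanzler leaf segments on agar sprayed with formulated compound in water, inoculated with rust spores 1 day later. Incubated at 19° C, 75% rh, 12 h light/12 h dark; percent disease control versus untreated scored 7 to 9 days after application; tested at 200 ppm.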

[3] = system: Glomerella lacenarium (Colletotrichum lacenarium); experiment: Glomerella lacenarium (Colletotrichum lacenarium) liquid culture / cucumber / preventative (anthracnose); type: cell-based; details: 20 ppm in the applied formulation, liquid culture in PDB, 24° C., 3 to 4 days after application, read-out: disease control (inhibition of growth, photometric) compared to untreated control
Method in brief: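 Cryostored conidia in potato dextrose broth added to DMSO compound solution in microtiter plates, incubated at 24° C. Growth inhibition read photometrically 3 to 4 days after application, as percent control versus untreated check; compounds tested at 20 ppm.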

CON(C)C(=O)C(=O)N(C)Cc1ccc(-c2noc(C(F)(F)F)n2)cc1 [Compound 4.104, N′-methoxy-N,N′-dimethyl-N-[[4-[5-- (trifluoromethyl)-1,2,4-oxadiazol-3-yl]phenyl]methyl] oxamide]
≥ 80%: pest or weed control at 200 ppm [1] | pest or weed control at 200 ppm (Phakopsora pachyrhizi) | pest or weed control at 200 ppm [2] | inhibition at 20 ppm [3]

CON(Cc1ccc(-c2noc(C(F)(F)F)n2)cc1F)C(=O)C(=O)c1ccco1 [Compound 1.83, N-[[2-fluoro-4-[5-(trifluoromethyl)-1,2,4-oxadiazol-3-yl]phenyl]methyl]-2-(2-furyl)-N-methoxy-2-oxo-acetamide]
≥ 80%: pest or weed control at 200 ppm [1] | pest or weed control at 200 ppm (Phakopsora pachyrhizi) | pest or weed control at 200 ppm [2] | inhibition at 20 ppm [3]

CC(C)(C)NC(=O)C(=O)NCc1ccc(-c2noc(C(F)(F)F)n2)cc1 [Compound 4.56, N′-tert-butyl-N-[[4-[5-(trifluoromethyl)-1,2,4-oxadiazol-3-yl]phenyl]methyl] oxamide]
≥ 80%: pest or weed control at 200 ppm [1] | pest or weed control at 200 ppm (Phakopsora pachyrhizi) | pest or weed control at 200 ppm [2] | inhibition at 20 ppm [3]

CC(C)(C)C(=O)C(=O)NCc1c(F)cc(-c2noc(C(F)(F)F)n2)cc1F [Compound 1.71, N-[[2,6-difluoro-4-[5-(trifluoromethyl)-1,2,4-oxadiazol-3-yl]phenyl]methyl]-3,3-dimethyl-2-oxo-butanamide]
≥ 80%: pest or weed control at 200 ppm [1] | pest or weed control at 200 ppm (Phakopsora pachyrhizi) | pest or weed control at 200 ppm [2] | inhibition at 20 ppm [3]

CC(=O)C(=O)N(C)Cc1ccc(-c2noc(C(F)(F)F)n2)cc1 [Compound 1.20, N-methyl-2-oxo-N-[[4-[5-(trifluoromethyl)-1,2,4-oxadiazol-3-yl]phenyl]methyl]propanamide]
≥ 80%: pest or weed control at 200 ppm [1] | pest or weed control at 200 ppm (Phakopsora pachyrhizi) | pest or weed control at 200 ppm [2] | inhibition at 20 ppm [3]

CC(C)C(=O)C(=O)N(Cc1ccc(-c2noc(C(F)(F)F)n2)cc1)C1CC1 [Compound 1.97, N-cyclopropyl-3-methyl-2-oxo-N-[[4-[5-(trifluoromethyl)-1,2,4-oxadiazol-3-yl]phenyl]methyl]butanamide]
≥ 80%: pest or weed control at 200 ppm [1] | pest or weed control at 200 ppm (Phakopsora pachyrhizi) | pest or weed control at 200 ppm [2] | inhibition at 20 ppm [3]

C=CCN(Cc1ccc(-c2noc(C(F)(F)F)n2)cc1)C(=O)C(=O)N(C)C [Compound 4.25, N′-allyl-N,N-dimethyl-N′-[[4-[5-(trifluoromethyl)-1,2,4-oxadiazol-3-yl]phenyl]methyl] oxamide]
≥ 80%: pest or weed control at 200 ppm [1] | pest or weed control at 200 ppm (Phakopsora pachyrhizi) | pest or weed control at 200 ppm [2] | inhibition at 20 ppm [3]

CC(C)CC(=O)C(=O)NCc1ccc(-c2noc(C(F)(F)F)n2)cc1F [Compound 1.38, N-[[2-fluoro-4-[5-(trifluoromethyl)-1,2,4-oxadiazol-3-yl]phenyl]methyl]-4-methyl-2-oxo-pentanamide]
≥ 80%: pest or weed control at 200 ppm [1] | pest or weed control at 200 ppm (Phakopsora pachyrhizi) | pest or weed control at 200 ppm [2] | inhibition at 20 ppm [3]

CCC(=O)C(=O)NCc1ccc(-c2noc(C(F)(F)F)n2)cc1Cl [Compound 1.64, N-[[2-chloro-4-[5-(trifluoromethyl)-1,2,4-oxadiazol-3-yl]phenyl]methyl]-2-oxo-butanamide]
≥ 80%: pest or weed control at 200 ppm [1] | pest or weed control at 200 ppm (Phakopsora pachyrhizi) | pest or weed control at 200 ppm [2] | inhibition at 20 ppm [3]

CN(C)C(=O)C(=O)NCc1c(F)cc(-c2noc(C(F)(F)F)n2)cc1F [Compound 4.98, N-[[2,6-difluoro-4-[5-(trifluoromethyl)-1,2,4-oxadiazol-3-yl]phenyl]methyl]-N′,N′-dimethyl-oxamide]
≥ 80%: pest or weed control at 200 ppm [1] | pest or weed control at 200 ppm (Phakopsora pachyrhizi) | pest or weed control at 200 ppm [2] | inhibition at 20 ppm [3]

O=C(NCc1ccc(-c2noc(C(F)(F)F)n2)cc1F)C(=O)c1ccccc1 [Compound 1.37, N-[[2-fluoro-4-[5-(trifluoromethyl)-1,2,4-oxadiazol-3-yl]phenyl]methyl]-2-oxo-2-phenyl-acetamide]
≥ 80%: pest or weed control at 200 ppm [1] | pest or weed control at 200 ppm (Phakopsora pachyrhizi) | pest or weed control at 200 ppm [2] | inhibition at 20 ppm [3]

CCN(Cc1ccc(-c2noc(C(F)(F)F)n2)cc1)C(=O)C(=O)C1CC1 [Compound 1.93, 2-cyclopropyl-N-ethyl-2-oxo-N-[[4-[5-(trifluoromethyl)-1,2,4-oxadiazol-3-yl]phenyl]methyl]acetamide]
≥ 80%: pest or weed control at 200 ppm [1] | pest or weed control at 200 ppm (Phakopsora pachyrhizi) | pest or weed control at 200 ppm [2] | inhibition at 20 ppm [3]

CC(C)(C)C(=O)C(=O)NCc1ccc(-c2noc(C(F)(F)F)n2)cc1F [Compound 1.40, N-[[2-fluoro-4-[5-(trifluoromethyl)-1,2,4-oxadiazol-3-yl]phenyl]methyl]-3,3-dimethyl-2-oxo-butanamide]
≥ 80%: pest or weed control at 200 ppm [1] | pest or weed control at 200 ppm (Phakopsora pachyrhizi) | pest or weed control at 200 ppm [2] | inhibition at 20 ppm [3]

O=C(C(=O)N(Cc1ccc(-c2noc(C(F)(F)F)n2)cc1)C1CC1)C1CC1 [Compound 1.92, N,2-dicyclopropyl-2-oxo-N-[[4-[5-(trifluoromethyl)-1,2,4-oxadiazol-3-yl]phenyl]methyl]acetamide]
≥ 80%: pest or weed control at 200 ppm [1] | pest or weed control at 200 ppm (Phakopsora pachyrhizi) | pest or weed control at 200 ppm [2] | inhibition at 20 ppm [3]

CON(Cc1ccc(-c2noc(C(F)(F)F)n2)cc1)C(=O)C(=O)CC(C)C [Compound 1.72, N-methoxy-4-methyl-2-oxo-N-[[4-[5-(trifluoromethyl)-1,2,4-oxadiazol-3-yl]phenyl]methyl]pentanamide]
≥ 80%: pest or weed control at 200 ppm [1] | pest or weed control at 200 ppm (Phakopsora pachyrhizi) | pest or weed control at 200 ppm [2] | inhibition at 20 ppm [3]

CO/N=C(\C)C(=O)N(Cc1ccc(-c2noc(C(F)(F)F)n2)cc1)OC [Compound 2.10, (2E)-N-methoxy-2-methoxyimino-N-[[4-[5-(trifluoromethyl)-1,2,4-oxadiazol-3-yl]phenyl]methyl] propanamide]
≥ 80%: pest or weed control at 200 ppm [1] | pest or weed control at 200 ppm (Phakopsora pachyrhizi) | pest or weed control at 200 ppm [2] | inhibition at 20 ppm [3]

O=C(NCc1ccc(-c2noc(C(F)(F)F)n2)c(F)c1F)C(=O)c1ccccc1 [Compound 1.46, N-[[2,3-difluoro-4-[5-(trifluoromethyl)-1,2,4-oxadiazol-3-yl]phenyl]methyl]-2-oxo-2-phenyl-acetamide]
≥ 80%: pest or weed control at 200 ppm (Phakopsora pachyrhizi) | pest or weed control at 200 ppm [2] | inhibition at 20 ppm [3]

O=C(NCc1ccc(-c2noc(C(F)(F)F)n2)c(F)c1F)C(=O)c1cccs1 [Compound 1.48, N-[[2,3-difluoro-4-[5-(trifluoromethyl)-1,2,4-oxadiazol-3-yl]phenyl]methyl]-2-oxo-2-(2-thienyl)acetamide]
≥ 80%: pest or weed control at 200 ppm (Phakopsora pachyrhizi) | pest or weed control at 200 ppm [2] | inhibition at 20 ppm [3]

O=C(NCc1ccc(-c2noc(C(F)(F)F)n2)cc1Cl)C(=O)c1ccccc1 [Compound 1.59, N-[[2-chloro-4-[5-(trifluoromethyl)-1,2,4-oxadiazol-3-yl]phenyl]methyl]-2-oxo-2-phenyl-acetamide]
≥ 80%: pest or weed control at 200 ppm (Phakopsora pachyrhizi) | pest or weed control at 200 ppm [2] | inhibition at 20 ppm [3]

C=CCN(Cc1ccc(-c2noc(C(F)(F)F)n2)cc1)C(=O)C(C)=O [Compound 1.16, N-allyl-2-oxo-N-[[4-[5-(trifluoromethyl)-1,2,4-oxadiazol-3-yl]phenyl]methyl]propanamide]
≥ 80%: pest or weed control at 200 ppm [1] | pest or weed control at 200 ppm (Phakopsora pachyrhizi) | inhibition at 20 ppm [3]

CC(C)(C)C(=O)C(=O)NCc1ccc(-c2noc(C(F)(F)F)n2)cc1Cl [Compound 1.63, N-[[2-chloro-4-[5-(trifluoromethyl)-1,2,4-oxadiazol-3-yl]phenyl]methyl]-3,3-dimethyl-2-oxo-butanamide]
≥ 80%: pest or weed control at 200 ppm (Phakopsora pachyrhizi) | pest or weed control at 200 ppm [2] | inhibition at 20 ppm [3]
